# Results published in US8013156B2 (Exelixis, Inc., priority 2003, dated 2011).
# pIC50: −log10 of the molar value.
# Target: Tie-2 (Homo sapiens, UniProt Q02763)
# Test: Tie-2 tyrosine kinase activity assay (luciferase/luciferin ATP consumption with pEY substrate, or 33P-ATP incorporation)
# Type: biochemical
# Details: human enzyme Tie-2
# In short: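 Values are IC50 categories (A <50 nM to D ≥10,000 nM), with Ki obtainable by fitting rates to a tight-binding model. Assay formats: 33P-ATP phosphate transfer to adsorbed generic substrate counted by scintillation, or luciferase-detected ATP depletion using pEY.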
# Tie-2, sequence (Q02763 23-1124): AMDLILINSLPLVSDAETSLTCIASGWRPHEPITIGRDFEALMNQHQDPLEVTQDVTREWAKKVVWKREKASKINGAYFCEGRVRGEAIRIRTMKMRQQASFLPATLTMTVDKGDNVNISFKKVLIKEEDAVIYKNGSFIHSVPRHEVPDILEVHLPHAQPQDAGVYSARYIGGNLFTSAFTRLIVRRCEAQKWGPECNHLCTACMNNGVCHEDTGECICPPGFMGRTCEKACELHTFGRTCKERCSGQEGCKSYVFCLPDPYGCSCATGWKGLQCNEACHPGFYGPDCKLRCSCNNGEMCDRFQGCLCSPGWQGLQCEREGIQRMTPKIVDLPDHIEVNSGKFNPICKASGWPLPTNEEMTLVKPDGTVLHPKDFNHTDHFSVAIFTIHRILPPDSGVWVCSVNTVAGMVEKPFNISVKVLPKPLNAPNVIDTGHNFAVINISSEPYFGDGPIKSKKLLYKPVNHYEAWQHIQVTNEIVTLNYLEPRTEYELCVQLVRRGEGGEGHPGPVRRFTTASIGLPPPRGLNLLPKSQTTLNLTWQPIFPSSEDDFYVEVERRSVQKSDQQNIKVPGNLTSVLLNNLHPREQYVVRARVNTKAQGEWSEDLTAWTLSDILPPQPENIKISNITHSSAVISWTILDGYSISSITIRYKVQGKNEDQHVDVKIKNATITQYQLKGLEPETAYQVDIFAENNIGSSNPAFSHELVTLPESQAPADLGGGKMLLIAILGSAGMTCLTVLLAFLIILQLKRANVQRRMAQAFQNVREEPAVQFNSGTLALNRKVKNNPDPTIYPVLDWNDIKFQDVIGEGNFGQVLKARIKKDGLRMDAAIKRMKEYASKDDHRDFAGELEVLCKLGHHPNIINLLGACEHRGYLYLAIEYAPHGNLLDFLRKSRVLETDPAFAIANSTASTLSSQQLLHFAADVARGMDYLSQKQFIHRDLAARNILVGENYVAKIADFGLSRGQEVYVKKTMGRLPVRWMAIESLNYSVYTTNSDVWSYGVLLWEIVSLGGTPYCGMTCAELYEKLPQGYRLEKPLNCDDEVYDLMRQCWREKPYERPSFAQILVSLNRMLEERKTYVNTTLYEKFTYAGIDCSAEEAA
row,pIC50,Compound
1,6.00 to 7.30,"Nc1nccc(COc2cccnc2N2CCN(C(=O)Nc3cccc(C(F)(F)F)c3F)CC2)n1 [Example 195, 4-(3-{[(2-aminopyrimidin-4-yl)methyl]oxy}pyridin-2-yl)-N-[2-fluoro-3-(trifluoromethyl)phenyl]piperazine-1-carboxamide]"
2,6.00 to 7.30,"CCN(CC)CC(=O)Nc1cc(COc2nsnc2N2CCN(C(=O)Nc3cc(C(F)(F)F)cc(C(F)(F)F)c3)CC2)ccn1 [Example 156, N-[3,5-bis(trifluoromethyl)phenyl]-4-{4-[({2-[(N,N-diethylglycyl)amino]pyridin-4-yl}methyl)oxy]-1,2,5-thiadiazol-3-yl}piperazine-1-carboxamide]"
3,> 7.30,"Nc1nccc(COc2nsnc2N2CCN(C(=O)Nc3cc(C(F)(F)F)cc(Cl)c3F)CC2)n1 [Example 248, 4-(4-{[(2-aminopyrimidin-4-yl)methyl]oxy}-1,2,5-thiadiazol-3-yl)-N-[3-chloro-2-fluoro-5-(trifluoromethyl)phenyl]piperazine-1-carboxamide]"
4,6.00 to 7.30,"CC1CN(c2nc3ccccc3nc2OCc2ccncc2)CCN1C(=O)Nc1cc(C(F)(F)F)cc(C(F)(F)F)c1 (stereo not drawn) [Example 74, N-[3,5-bis(trifluoromethyl)phenyl]-2-methyl-4-{3-[(pyridin-4-ylmethyl)oxy]quinoxalin-2-yl}piperazine-1-carboxamide]"
5,> 7.30,"CCOC(=O)Nc1cc(COc2nsnc2N2CCN(C(=O)Nc3cc(C(F)(F)F)cc(C(F)(F)F)c3)CC2)ccn1 [Example 153, ethyl {4-[({4-[4-({[3,5-bis(trifluoromethyl)phenyl]amino}carbonyl)piperazin-1-yl]-1,2,5-thiadiazol-3-yl}oxy)methyl]pyridin-2-yl}carbamate]"
6,6.00 to 7.30,"CC1CN(c2nccnc2OCc2ccncc2)CCN1C(=O)Nc1cccc(C(F)(F)F)c1 (stereo not drawn) [Example 63, 2-methyl-4-{3-[(pyridin-4-ylmethyl)oxy]pyrazin-2-yl}-N-[3-(trifluoromethyl)phenyl]piperazine-1-carboxamide]"
7,> 7.30,"CC1CN(c2nccnc2OCc2ccncc2)CCN1C(=O)Nc1cc(C(F)(F)F)cc(C(F)(F)F)c1 (stereo not drawn) [Example 62, N-[3,5-bis(trifluoromethyl)phenyl]-2-methyl-4-{3-[(pyridin-4-ylmethyl)oxy]pyrazin-2-yl}piperazine-1-carboxamide]"
8,> 7.30,"CN1CCN(CC(=O)Nc2cc(COc3cccnc3N3CCN(C(=O)Nc4cc(C(F)(F)F)cc(C(F)(F)F)c4)CC3)ccn2)CC1 [Example 173, N-[3,5-bis(trifluoromethyl)phenyl]-4-(3-{[(2-{[(4-methylpiperazin-1-yl)acetyl]amino}pyridin-4-yl)methyl]oxy}pyridin-2-yl)piperazine-1-carboxamide]"
9,≤ 5.00,O=C(Nc1cc(C(F)(F)F)cc(C(F)(F)F)c1)N1CCN(c2nsnc2OCc2ccsc2)CC1 [Example 13]
10,> 7.30,O=C(Nc1cc(C(F)(F)F)cc(C(F)(F)F)c1)N1CCN(c2nsnc2OCc2ccncc2)CC1 [Example 2]
11,6.00 to 7.30,"O=C(Nc1nccc(COc2nsnc2N2CCN(C(=O)Nc3cc(C(F)(F)F)cc(C(F)(F)F)c3)CC2)n1)c1ccccc1 [Example 126, N-[3,5-bis(trifluoromethyl)phenyl]-4-{4-[({2-[(phenylcarbonyl)amino]pyrimidin-4-yl}methyl)oxy]-1,2,5-thiadiazol-3-yl}piperazine-1-carboxamide]"
12,6.00 to 7.30,"O=C(Nc1cccc(Cl)c1)N1CCN(c2ncccc2OCc2ccncc2)CC1 [Example 105, N-(3-chlorophenyl)-4-{3-[(pyridin-4-ylmethyl)oxy]pyridin-2-yl}piperazine-1-carboxamide]"
13,> 7.30,"CC(C)c1cccc(NC(=O)N2CCN(c3nccnc3OCc3ccnc(N)n3)CC2)c1 [Example 251, 4-(3-{[(2-aminopyrimidin-4-yl)methyl]oxy}pyrazin-2-yl)-N-[3-(1-methylethyl)phenyl]piperazine-1-carboxamide]"
14,> 7.30,"CN1CCN(CC(=O)Nc2cc(COc3cccnc3N3CCN(C(=O)Nc4cccc(C5CC5)c4)CC3)ccn2)CC1 [Example 209, N-(3-cyclopropylphenyl)-4-(3-{[(2-{[(4-methylpiperazin-1-yl)acetyl]amino}pyridin-4-yl)methyl]oxy}pyridin-2-yl)piperazine-1-carboxamide]"
15,6.00 to 7.30,"Nc1nccc(COc2nsnc2N2CCN(C(=O)Cc3cc(C(F)(F)F)cc(C(F)(F)F)c3)CC2)n1 [Example 274, 4-({[4-(4-{[3,5-bis(trifluoromethyl)phenyl]acetyl}piperazin-1-yl)-1,2,5-thiadiazol-3-yl]oxy}methyl)pyrimidin-2-amine]"
16,6.00 to 7.30,"CSc1cccc(NC(=O)N2CCN(c3nsnc3OCc3ccnc(N)n3)CC2)c1 [Example 266, 4-(4-{[(2-aminopyrimidin-4-yl)methyl]oxy}-1,2,5-thiadiazol-3-yl)-N-[3-(methylthio)phenyl]piperazine-1-carboxamide]"
17,5.00 to 6.00,"Nc1nccc(COc2nsnc2N2CCN(C(=O)Nc3cccc(F)c3)CC2)n1 [Example 263, 4-(4-{[(2-aminopyrimidin-4-yl)methyl]oxy}-1,2,5-thiadiazol-3-yl)-N-(3-fluorophenyl)piperazine-1-carboxamide]"

row,pIC50,Compound
1,5.00 to 6.00,"O=C(Nc1cc(COc2nsnc2N2CCN(C(=O)Nc3cc(C(F)(F)F)cc(C(F)(F)F)c3)CC2)ccn1)c1ccccc1 [Example 125, N-[3,5-bis(trifluoromethyl)phenyl]-4-{4-[({2-[(phenylcarbonyl)amino]pyridin-4-yl}methyl)oxy]-1,2,5-thiadiazol-3-yl}piperazine-1-carboxamide]"
2,> 7.30,"Nc1nccc(COc2cccnc2N2CCN(C(=O)Nc3cc(Cl)cc(Cl)c3)CC2)n1 [Example 197, 4-(3-{[(2-aminopyrimidin-4-yl)methyl]oxy}pyridin-2-yl)-N-(3,5-dichlorophenyl)piperazine-1-carboxamide]"
3,5.00 to 6.00,"O=C(Nc1cc(C(F)(F)F)cc(C(F)(F)F)c1)N1CCN(c2nsnc2OCCCc2cccnc2)CC1 [Example 29, N-[3,5-bis(trifluoromethyl)phenyl]-4-{4-[(3-pyridin-3-ylpropyl)oxy]-1,2,5-thiadiazol-3-yl}piperazine-1-carboxamide]"
4,6.00 to 7.30,"CC1CN(c2nccnc2OCc2ccncc2)CC(C)N1C(=O)Nc1cccc(C(F)(F)F)c1 (stereo not drawn) [Example 65, 2,6-dimethyl-4-{3-[(pyridin-4-ylmethyl)oxy]pyrazin-2-yl}-N-[3-(trifluoromethyl)phenyl]piperazine-1-carboxamide]"
5,≤ 5.00,"CN(C)c1cccc(COc2nsnc2N2CCN(C(=O)Nc3cc(C(F)(F)F)cc(C(F)(F)F)c3)CC2)c1 [Example 11, N-[3,5-bis(trifluoromethyl)phenyl]-4-[4-({[3-(dimethylamino)phenyl]methyl}oxy)-1,2,5-thiadiazol-3-yl]piperazine-1-carboxamide]"
6,≤ 5.00,O=C(Nc1cc(C(F)(F)F)cc(C(F)(F)F)c1)N1CCN(c2nsnc2OCc2ccoc2)CC1 [Example 20]
7,≤ 5.00,"O=C(Nc1ccc(Cl)cc1)N1CCN(c2ncccc2OCc2ccncc2)CC1 [Example 103, N-(4-chlorophenyl)-4-{3-[(pyridin-4-ylmethyl)oxy]pyridin-2-yl}piperazine-1-carboxamide]"
8,5.00 to 6.00,"Nc1nccc(COc2ccccc2N2CCN(C(=O)Nc3cccc(F)c3)CC2)n1 [Example 269, 4-(2-{[(2-aminopyrimidin-4-yl)methyl]oxy}phenyl)-N-(3-fluorophenyl)piperazine-1-carboxamide]"
9,> 7.30,"Nc1nccc(COc2cccnc2N2CCN(C(=O)Nc3cc(C(F)(F)F)ccc3F)CC2)n1 [Example 169, 4-(3-{[(2-aminopyrimidin-4-yl)methyl]oxy}pyridin-2-yl)-N-[2-fluoro-5-(trifluoromethyl)phenyl]piperazine-1-carboxamide]"
10,6.00 to 7.30,"O=C(Nc1cc(C(F)(F)F)cc(C(F)(F)F)c1)N1CCCN(c2nccnc2OCc2ccncc2)CC1 [Example 75, N-[3,5-bis(trifluoromethyl)phenyl]-4-{3-[(pyridin-4-ylmethyl)oxy]pyrazin-2-yl}-1,4-diazepane-1-carboxamide]"
11,> 7.30,"CCc1cc(Br)cc(NC(=O)N2CCN(c3nccnc3OCc3ccnc(N)n3)CC2)c1 [Example 236, 4-(3-{[(2-aminopyrimidin-4-yl)methyl]oxy}pyrazin-2-yl)-N-(3-bromo-5-ethylphenyl)piperazine-1-carboxamide]"
12,6.00 to 7.30,"CC1CN(c2nccnc2OCc2ccncc2)CC(C)N1C(=O)Nc1cc(C(F)(F)F)cc(C(F)(F)F)c1 (stereo not drawn) [Example 64, N-[3,5-bis(trifluoromethyl)phenyl]-2,6-dimethyl-4-{3-[(pyridin-4-ylmethyl)oxy]pyrazin-2-yl}piperazine-1-carboxamide]"
13,6.00 to 7.30,"NC(=O)c1nccc(COc2nsnc2N2CCN(C(=O)Nc3cc(C(F)(F)F)cc(C(F)(F)F)c3)CC2)n1 [Example 136, 4-[({4-[4-({[3,5-bis(trifluoromethyl)phenyl]amino}carbonyl)piperazin-1-yl]-1,2,5-thiadiazol-3-yl}oxy)methyl]pyrimidine-2-carboxamide]"
14,≤ 5.00,"O=C(Nc1cc(C(F)(F)F)cc(C(F)(F)F)c1)N1CCN(c2nsnc2OCc2ccnc(N3CCOC3=O)c2)CC1 [Example 159, N-[3,5-bis(trifluoromethyl)phenyl]-4-[4-({[2-(2-oxo-1,3-oxazolidin-3-yl)pyridin-4-yl]methyl}oxy)-1,2,5-thiadiazol-3-yl]piperazine-1-carboxamide]"
15,> 7.30,"Nc1nccc(COc2nsnc2N2CCN(C(=O)Nc3cc(F)cc(C(F)(F)F)c3)CC2)n1 [Example 239, 4-(4-{[(2-aminopyrimidin-4-yl)methyl]oxy}-1,2,5-thiadiazol-3-yl)-N-[3-fluoro-5-(trifluoromethyl)phenyl]piperazine-1-carboxamide]"
16,6.00 to 7.30,"CCc1ccc(F)c(NC(=O)N2CCN(c3nsnc3OCc3ccnc(N)n3)CC2)c1 [Example 222, 4-(4-{[(2-aminopyrimidin-4-yl)methyl]oxy}-1,2,5-thiadiazol-3-yl)-N-(5-ethyl-2-fluorophenyl)piperazine-1-carboxamide]"
